These are literature values, as cited in patent publication US20130202650A1, “TOPICAL COMPOSITION COMPRISING A COMBINATION OF AT LEAST TWO PENETRATION ENHANCING AGENTS” (Moberg Derma AB, priority 2008, published 2013).

Where a name gives a salt, the structure may show the parent alone.

The conditions of the data set: tBtOH-IPM (2:8) vehicle; mouse.

Consider `CN1[C@@H]2CC[C@H]1C[C@@H](OC(c1ccccc1)c1ccccc1)C2` [BZ mesylate, benztropine], for which the BZ flux from the mesylate salt was 2020 µg/cm²/h; the “BZ flux, fold greater than from water” value was 100 fold; the “BZ flux, fold greater than the individual neat solvents” value was 44-540 fold.
